Results published in PMC9356065, “Novel psoralen derivatives as anti-breast cancer agents and their light-activated cytotoxicity against HER2 positive breast cancer cells” (Scientific Reports, 2022).
Structures can show the parent of a compound that is named as a salt. Where two headings read alike, the source gives them in different places.

Columns and labels:
[1] = tested on: MDA-MB-231; assay: MTT cytotoxicity, 48 h, without UVA; assay type: cell-based; conditions: Homo sapiens, MDA-MB-231, light or radiation study; for IC50: hormone-independent breast cancer, read-out: Cytotoxic activity MDA-MB-231 IC50
Protocol: (§1) MDA-MB-231 (triple-negative breast cancer) was obtained from M.D. Anderson Cancer Center, Houston, TX, USA). T47-D (hormone-dependent breast carcinoma), SK-BR-3 (human HER2+ breast cancer), and MRC-5 (normal embryonic lung fibroblast) were obtained from the American Type Culture Collection (ATCC, Manassas, VA, USA).
(§2) The cytotoxic effect of tested compounds was evaluated in two breast cancer cell lines, MDA-MB-231 and T47-D. Number of survival cells after exposure to tested compounds for 48 h was determined by MTT assay, as previously described.

[2] = tested on: T47-D; assay: MTT cytotoxicity, 48 h, without UVA; assay type: cell-based, human; conditions: for IC50: hormone-dependent breast cancer, read-out: Cytotoxic activity T47-D IC50; for Selectivity Index (SI): SI = IC50 for MRC-5/IC50 for T47-D
Protocol: (§3) Additionally, the cytotoxicity towards normal cells, human embryonal lung fibroblast cell MRC-5 was also assessed.
as §1, §2

[3] = tested on: SK-BR-3; assay: Dark and light-activated (UVA) cytotoxicity, MTT; assay type: cell-based, human; conditions: for IC50: Homo sapiens, SK-BR-3, light or radiation study, irradiation with UVA (2.0 J cm^−2), HER2+ breast cancer
Protocol: (§4) The selected compounds were screened for their IC50 values against both HER2+ breast cancer (SK-BR-3), and HER2− breast cancer (MDA-MB-231) in both dark and light-activated conditions (Table 2). Additionally, a negative control study was also performed with SK-BR-3 and MDA-MB-231 cells in the absence of tested compound under UVA irradiation (See Fig S7., Supporting Information).
(§5) SK-BR-3 and MDA-MB-231 cells were seeded into 96-well cell culture plates at 5 × 10^3 cells/well and incubated for 24 h at 37 °C under 5% CO2. After that, the cells were treated with 50 μM of psoralen derivatives in DMEM with 10% FBS and the cells were continued incubation for another 4 h. After incubation, the cells were washed with PBS (3 times) and then irradiated by a 365 nm lamp with the light intensity of 2.0 J cm^−2 for 12.5 min before re-incubation for another 72 h. After incubation, the cell was treated with methylthiazolyldiphenyl-tetrazolium bromide (MTT reagent 200 μL, 0.5 mg mL^−1, Sigma-Aldrich) for 2 h. After reagent removal, DMSO was added to dissolve the formazan product and the cell viabilities were determined through UV–Vis absorption of the resulting formazan at wavelength 560 nm using a microplate reader (BMG Labtech/SPECTROstar Nano). The cell morphology images were captured by using a light microscope (Microscope Nikon, inverted digital) at 20X magnification prior to treating with MTT reagent.

[4] = tested on: MDA-MB-231; assay: Dark and light-activated (UVA) cytotoxicity, MTT; assay type: cell-based; conditions: Homo sapiens, MDA-MB-231, light or radiation study; irradiation with UVA (2.0 J cm^−2); HER2− breast cancer
Protocol: as §4, §5

[5] = tested on: SK-BR-3; assay: Dark and light-activated (UVA) cytotoxicity, MTT; assay type: cell-based; conditions: Homo sapiens, dark, HER2+ breast cancer
[6] = tested on: MDA-MB-231; assay: Dark and light-activated (UVA) cytotoxicity, MTT; assay type: cell-based; conditions: Homo sapiens, dark, HER2− breast cancer
[7] = tested on: circulating estrogen levels; set-up: method as in PMID 10098905; conditions: female rats, dose-dependent; cited from earlier work
[8] = tested on: ERα activity in MCF-7 cells; set-up: method as in PMID 31673107; conditions: read-out: IC50 antagonism of ERα activity in MCF-7 cells; cited from earlier work
[9] = tested on: estrogen receptor in MCF-7 breast cancer cells; set-up: method as in PMID 23053665; conditions: MCF-7 breast cancer cells and tamoxifen-resistant clone; cited from earlier work
[10] = MTT cytotoxicity towards normal cells, 48 h; assay type: cell-based; conditions: MRC-5 cells (normal embryonic lung fibroblasts), human embryonal lung fibroblast cell, without UVA, read-out: Cytotoxic activity MRC-5 IC50
Protocol: as §3, §1, §2

[11] = tested on: MCF-7; conditions: Fig. 1d; cited from earlier work
[12] = tested on: MDA-MB-231; set-up: method as in doi:10.1007/s00044-014-1312-6; conditions: previously reported; cited from earlier work
[13] = target: T1, aromatase (CYP19) (Homo sapiens, UniProt P11511); assay: Inhibition of aromatase (AIA); assay type: biochemical; conditions: at 12.5 µM; I = %inhibition lower than 50%; read-out: Aromatase inhibitory activity %Inhibition
T1 sequence (P11511 1-503): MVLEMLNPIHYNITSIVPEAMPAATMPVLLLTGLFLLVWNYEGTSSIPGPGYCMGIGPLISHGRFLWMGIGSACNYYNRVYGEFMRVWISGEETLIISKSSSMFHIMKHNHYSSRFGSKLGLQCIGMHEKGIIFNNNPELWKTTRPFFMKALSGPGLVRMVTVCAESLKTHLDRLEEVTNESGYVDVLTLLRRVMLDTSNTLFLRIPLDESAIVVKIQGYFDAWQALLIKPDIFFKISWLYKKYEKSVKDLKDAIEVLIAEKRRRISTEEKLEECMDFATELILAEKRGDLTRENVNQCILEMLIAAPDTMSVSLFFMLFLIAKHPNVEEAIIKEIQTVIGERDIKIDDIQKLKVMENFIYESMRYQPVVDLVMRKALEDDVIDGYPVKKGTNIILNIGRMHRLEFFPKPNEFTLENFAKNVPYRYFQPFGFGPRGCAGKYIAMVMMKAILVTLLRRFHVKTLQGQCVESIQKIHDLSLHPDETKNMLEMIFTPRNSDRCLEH
Protocol: Estrogens are the critical risk factor for breast cancer initiation and progression and the aromatase enzyme involves in the final step conversion of androgens to estrogens[21],[22]. […] In this study, the synthesized psoralen derivatives were also tested for aromatase inhibitory activity (AIA) which is considered to be one of chemopreventive mechanisms for hormone dependent breast cancer.
Inhibition of the aromatase was performed using the method designed by Stresser et al.[39].

[14] = Scavenging of diphenyl-picryl-hydrazyl radicals (DPPH); conditions: screening concentration 250 µM
Excerpt: 1. Chemoprevention activity

[15] = tested on: differentiated HL-60 cells; assay: Inhibition of TPA-induced superoxide anion radical generation (HL-60 Antioxidant); assay type: cell-based, human; conditions: Homo sapiens, HL-60; screening concentration 100 µM; read-out: HL-60 Antiox. %Inh
Excerpt: Inhibition of 12-O-tetradecanoylphorbol-13-acetate (TPA)-induced superoxide anion radical generation in differentiated HL-60 cells (HL-60 Antioxidant) TPA-induced superoxide anion radical formation was detected in differentiated HL-60 cells by photometric determination of cytochrome c reduction as previously described by Gerhäuser et al., 2003.ii Superoxide dismutase (SOD;15U) was a positive control. […]

[16] = Inhibition of superoxide radical formation by xanthine/xanthine oxidase (XXO); assay type: biochemical; conditions: screening concentration 500 µM
Excerpt: 1. […]

[17] = tested on: SK-BR-3 cells; assay: Cell morphology by light microscope; assay type: cell-based, human; conditions: 48 h
Protocol: as §5, with “After incubation, the cells were washed with PBS (3 times) and then irradiated by a 365 nm lamp with the light intensity of 2.0 J cm^−2 for 12.5 min before re-incubation for another 72 h.” left out

[18] = tested on: 3T3; set-up: method as in PMID 32815004, PMID 20693013; conditions: cited from earlier work
[19] = Homo sapiens, T47D, light or radiation study, 48 h, without UVA

## COc1c2occc2cc2ccc(=O)oc12 [8-MOP, 8-methoxypsoralen, reference compound]
[1]; I = %inhibition lower than 50%, read-out: Cytotoxic activity MDA-MB-231 %Inhibition
  inhibition at 50 µg/mL: 6%
[2]; Homo sapiens, T47D, light or radiation study, 48 h, without UVA, I = %inhibition lower than 50%, read-out: Cytotoxic activity T47-D %Inhibition
  inhibition at 50 µg/mL: 16%
[3]; 50 µM, absence and presence of UVA (2.0 J cm^−2), Fig. 3
  dark and light-activated cytotoxicity against SK-BR-3 (%viability screening): little to no activity
[3]
  IC50: 24.7 ± 3.02 µM
[4]
  IC50: > 100 µM
[5]
  IC50: > 100 µM
[6]
  IC50: > 100 µM
[7]
  circulating estrogen levels: significantly reduced

## COc1c2ccoc2cc2oc(=O)ccc12 [bergapten]
[8]
  IC50: 1.2 µM
[7]
  circulating estrogen levels: significantly reduced
[9]
  levels of estrogen receptor: reduced

## CC/C(=C(\c1ccccc1)c1ccc(OCCN(C)C)cc1)c1ccccc1 [Tamoxifen citrate, reference compound]
[1]
  IC50: 66 ± 2.48 µM
[2]; [19]
  IC50: 20.9 ± 1.31 µM
[10]
  IC50 at 48 h: 67.6 ± 10.5 µM

## COc1c2occc2c(NCc2ccccc2)c2ccc(=O)oc12 [Vb]
[11]
  IC50: 1.09 µM
[12]
  IC50: 3 µM

## COc1c2occc2c(NC(=O)C23CC4CC(CC(C4)C2)C3)c2ccc(=O)oc12 [3n, (3r,5r,7r)-N-(9-Methoxy-7-oxo-7H-furo[3,2-g]chromen-4-yl)adamantane-1-carboxamide]
[1]
  IC50: > 100 µM
[2]; [19]
  IC50: 43.06 ± 0.09 µM
[2]
  Selectivity Index (SI): > 3.0
[13]
  inhibition at 12.5 µM: 5%
[14]
  DPPH %Inh: 1%
[15]
  inhibition at 100 µM: 8%
[16]
  XXO %Inh: 47%
other
  melting point: 240 to 242 °C
[11]
  IC50: 0.48 µM
[12]
  IC50: 2 µM

## COc1c2occc2c(NC(=O)c2cccc3ccccc23)c2ccc(=O)oc12 [VIb]
[11]
  IC50 (MCF-7): Inactive
[12]
  IC50: 100 µM

## CC(C)=CCOc1c2ccoc2cc2oc(=O)ccc12 [isoimperatorin]
[8]
  IC50: 54.3 µM

## CS(=O)(=O)CCNCc1ccc(-c2ccc3ncnc(Nc4ccc(OCc5cccc(F)c5)c(Cl)c4)c3c2)o1 [Lapatinib, reference compound]
[1]
  IC50: 53.37 ± 0.31 µM
[2]; [19]
  IC50: 9.78 ± 0.46 µM
[2]
  Selectivity Index (SI): 5.0
[10]
  IC50 at 48 h: 48.8 ± 9.45 µM
[3]
  IC50: 0.16 ± 0.03 µM
[4]
  IC50: 8.6 ± 0.82 µM
[17]; UVA 2.0 J cm^−2
  morphology of SK-BR-3 cells under light activation: morphological changes indicating apoptosis
[17]; dark
  morphology of SK-BR-3 cells under dark condition: morphological changes indicating apoptosis
[5]
  IC50: 25.3 ± 0.99 µM
[6]
  IC50: 73 ± 2.53 µM
[18]
  phototoxic potential (3T3 NRU assay): phototoxic potential

## C=CCNc1c2ccoc2c(OC)c2oc(=O)ccc12 [Va]
[11]
  IC50: 3.87 µM
[12]
  IC50: 5 µM

## COc1c2occc2c(NC(=O)c2cccc([N+](=O)[O-])c2)c2ccc(=O)oc12 [3f, N-(9-Methoxy-7-oxo-7H-furo[3,2-g]chromen-4-yl)-3-nitrobenzamide]
[1]
  IC50: 71 ± 2.34 µM
[2]; [19]
  IC50: 49.8 ± 0.5 µM
[2]
  Selectivity Index (SI): 1.6
[10]
  IC50 at 48 h: 77.3 ± 3.52 µM
[13]
  inhibition at 12.5 µM: 4%
[14]
  DPPH %Inh: 1%
[15]
  inhibition at 100 µM: 7%
[16]
  XXO %Inh: 33%
other
  melting point: 267 to 268 °C

## COc1cccc2c1C(=O)c1c(O)c3c(c(O)c1C2=O)C[C@@](O)(C(=O)CO)C[C@@H]3O[C@H]1C[C@H](N)[C@H](O)[C@H](C)O1 [Doxorubicin, reference compound]
[1]
  IC50: 3.16 ± 0.26 µM
[2]; [19]
  IC50: 1.46 ± 2.79 µM
[2]
  Selectivity Index (SI): 2.1
[10]
  IC50 at 48 h: 3.07 ± 0.22 µM
